Source: patent US20040242870A1, “Antiviral methods and compounds” (priority 2000, published 2004)

Experiments:
PBMCs [1] = test: PBMC apoptosis by flow cytometry (APO-BRDU kit); assay type: cell-based, Human
Protocol: Flow cytometry studies were carried out on PHA/IL-2 induced PBMCs treated for 6 days with the various test compounds. Prior to flow cytometry the PBMCs were washed, counted and 1×10^6 cells resuspended in PBS and stained for CD4 or CD8 surface markers using anti-CD4.PE or CD8.PE (both from PharMingen) for 30 min at 4° C. The PBMC were then washed, fixed (Cytofix) and permeabilized (Cytoperm) followed by staining for apoptosis-related DNA damage. Initial experiments used the BrdU Flow Kit from PharMigen (2354KK). […] For both kits, manufacturers instructions were followed for staining and analysis of the samples. Following the appropriate staining protocol the cells were analyzed using a Becton Dickinson (Bedford, Mass.) FACSSort
In another series of experiments, the IG compounds and cannabidiol treated cells were assessed for the induction of apoptosis (see Tables 8 and 9). […] As IL-2 is an essential component for maintaining the health of PHA induced PBMCs, a second focus of these studies focuses on the effect of the compounds in the absence of IL-2.

PBMCs [2] = test: PBMC cytotoxicity in time-of-addition assay; assay type: cell-based, Human
Description: Human peripheral blood mononuclear cells from a minimum of 2 donors, that have been blasted with PHA and IL-2, were counted, viability determined by Trypan Blue dye exclusion and mixed in equal ratios. Pooled donors were used to minimize the variability observed between individual donors which results from quantitative and qualitative differences in HIV infection and overall response to the PHA and IL-2 of primary lymphocyte populations. The cells were resuspended at 1×10^6 cells/mL in RPMI 1640 without phenol red supplemented with 15% Fetal Bovine Serum (heat inactivated), 2 mM L-glutamine, 100 U/mL penicillin, 100 μg/mL streptomycin, 10 μg/Ln gentamycin and IL-2 (20 U/mL, R&D Systems, Minneapolis, Minn.). Fifty microliters of cells were then distributed to the inner 60 wells of a 96 well round bottom microtiter culture plate in a standard format developed by the Infectious Disease Research department of Southern Research Institute. Each plate contains cell control wells (cells only), virus control wells (cells plus virus), and experimental wells (drug plus cells plus virus). Alternatively, cells were cultured in T25 cm^2 or T75 cm^2 tissue culture flasks at a starting density of 1×10^6 cells per ml. Serially diluted compounds were added to the microtiter plate or tissue culture flask followed by the appropriate pre-titered strain of HIV-1. For virus replication inhibition experiments the HIV-1 strain RoJo was used. This is a low passage presumable subtype B pediatric isolate with a syncytium inducing (SI) phenotype in MT-2 cells isolated by Southern Research Institute personnel. All samples were assayed in triplicate where possible with an accompanying determination of compound toxicity. The final volume per well in the microtiter plates was 200 μL. The final volume in the tissue culture flask varied depending upon experimental design and flask size. Assays were incubated for 6 days in a humidified atmosphere at 37° C., 5% CO2, after which supernatants were collected, for analysis of RT activity and cell viability by MTS dye reduction. Culture were also examined microscopically, any abnormalities noted, and in the case of tissue culture flasks cell counts and viability determined by Trypan Blue Dye exclusion.
Time-of-addition assays were performed with PBMCs in two ways. For both assays, PBMCs were isolated and cultured under the conditions as described above. Time-of-addition assays were carried out in either a tissue culture flask format (T-75 cm^2) or in microtiter wells. In both cases due to the lack of plastic adherence and heterogeneity of the PBMC population for susceptibility to infection, it was not possible to use complete removal of virus following a timed adsorption to synchronize the infection and limit the assay to a single round of infection. Therefore, serial washing by partial removal of the media was used to reduce the concentration of virus and compound (if required) in the assay. Compound addition in relationship to antiviral activity was either assessed over a short addition interval immediately before or after virus addition or for up to 72 h post infection. For all assays virus replication was assessed at 6 days of culture by determining RT expression in cell-free supernatants. In the tissue culture flask format cells were counted and Trypan Blue Dye exclusion used to monitor compound cytotoxicity. Cell viability in the 96 well microtiter plate format was determined by MTS dye reduction. AZT was used as a positive control.
At assay termination the assay plates were stained with the soluble tetrazolium-based dye MTS (CellTiter96® Reagent Promega) to determine cell viability and quantify compound toxicity. MTS is metabolized by the mitochondria enzymes of metabolically active cells to a soluble formazan product, allowing the rapid quantitative analysis cell viability and compound cytotoxicity. […] At termination of the assay 20 μL of MTS reagent was added per well and incubated for 4 h at 37° C. […]

[3] = IL-2 supplemented media, 15 μM, HIV +
[4] = IL-2 supplemented media, 15 μM, HIV −
[5] = IL-2 supplemented media, 30 μM, HIV +
[6] = IL-2 supplemented media, 30 μM, HIV −
[7] = −4 h pre (relative to infection)
[8] = IL-2 supplemented media, 50 μM, HIV +
[9] = IL-2 supplemented media, 50 μM, HIV −
[10] = IL-2 supplemented media, 100 μM, HIV +
[11] = IL-2 supplemented media, 100 μM, HIV −

Structure (SMILES) | % Apoptosis (PBMCs [1]; [3]) [%] | Fold Change (PBMCs [1]; [3]) | % Apoptosis (PBMCs [1]; [4]) [%] | Fold Change (PBMCs [1]; [4]) | % Apoptosis (PBMCs [1]; [5]) [%] | Fold Change (PBMCs [1]; [5]) | % Apoptosis (PBMCs [1]; [6]) [%] | Fold Change (PBMCs [1]; [6]) | TC50 (PBMCs [2]; 6 h post infection) [µM] | TC50 (PBMCs [2]; at infection) [µM] | TC50 (PBMCs [2]; [7]) [µM] | further results
CC(C)=CCCC1(C)CCc2c(O)cc(C(C)(C)CCCC(C)C)cc2O1 (centres unmarked) [IG-08, 3,4-Dihydro-2-methyl-2-(4-methyl-3-pentenyl)-7-(1,1,5-trimethylhexyl)-2H-1-benzopyran-5-ol] | 19.3 | 1.2 | 17.3 | 1.2 | 32.1 | 2 | 27.5 | 2.3 | >100 | >100 | >100 | % Apoptosis (PBMCs [1]; IL-2 deficient media, 15 μM, HIV +): 29%; % Apoptosis (PBMCs [1]; IL-2 deficient media, 15 μM, HIV −): 18.4%; % Apoptosis (PBMCs [1]; IL-2 deficient media, 30 μM, HIV +): 13.8%; % Apoptosis (PBMCs [1]; IL-2 deficient media, 30 μM, HIV −): 11.7%
COc1cc(C(C)(C)CCCC(C)C)cc(OC)c1OC [IG-07, 1-(1,1,5Trimethylhexyl)-3,4,5-trimethoxybenzene] | – | – | – | – | – | – | – | – | >100 | >100 | >100 | % Apoptosis (PBMCs [1]; IL-2 deficient media, 50 μM, HIV +): 32.6%; % Apoptosis (PBMCs [1]; IL-2 deficient media, 50 μM, HIV −): 27%; % Apoptosis (PBMCs [1]; IL-2 deficient media, 100 μM, HIV +): 64%; % Apoptosis (PBMCs [1]; IL-2 deficient media, 100 μM, HIV −): 54%; % Apoptosis (PBMCs [1]; [8]): 16%; Fold Change (PBMCs [1]; [8]): 1; % Apoptosis (PBMCs [1]; [9]): 14.4%; Fold Change (PBMCs [1]; [9]): 1.2; % Apoptosis (PBMCs [1]; [10]): 22.5%; Fold Change (PBMCs [1]; [10]): 1.4; % Apoptosis (PBMCs [1]; [11]): 22.8%; Fold Change (PBMCs [1]; [11]): 2
C=C(C)[C@@H]1CCC(C)=C[C@H]1c1c(O)cc(CCCCC)cc1O [Cannabidiol, reference compound] | 20.0 | 1.2 | 20.5 | 1.7 | 74 | 4.6 | 22 | 1.8 | >100 | >100 | >100 | –
